The experiment has as its target T1, human Mnk2a (Homo sapiens, UniProt Q9HBH9).
T1 construct: made in house; host or cells: E. coli BL21 (vector pGEX-4T1)
The experiment is described as follows: Mnk2a in vitro kinase assay (indirect fluorescence polarization). Type of experiment: biochemical. The following applies: GST-Mnk2a pre-activated with ERK2, 20 μM ATP, 30 μM substrate peptide; read-out: MNK2 IC50. The method, then:
Inhibitory potency of compounds against Mnk1, Mnk2a and other kinases was assessed with assays based on a format known to those skilled in the art as the indirect (competitive) fluorescence polarization. The assay detection system comprises a small fluorophore-labeled phospho-peptide (termed ligand) bound to a phospho-specific antibody. The product generated by the kinase reaction competes with the ligand for antibody binding. Based on the larger molecular volume of the bound ligand, which results in a lower rotation rate in solution, its emitted light has a higher degree of polarization than the one from the free ligand.
As a source of enzyme, human Mnk1 and human Mnk2a were expressed as GST fusion proteins in E. coli, purified to >80% homogeneity by glutathione affinity chromatography and activated in vitro with pre-activated ERK2. In brief, the open reading frames of human Mnk1 and Mnk2a were amplified from cDNA using the forward/reverse primer pairs
(utilized restriction sites underlined), respectively, and cloned into the BamHI and SalI sites of the vector pGEX-4T1 (Amersham, Sweden, cat. no. 27-4580-01). These constructs allow prokaryotic expression of Mnk1 or Mnk2a as fusion protein with a N-terminal glutathione S-transferase (GST) tag, referred to as GST-Mnk1 or GST-Mnk2a. The following expression and purification procedure was identical for GST-Mnk1 and GST-Mnk2a, referring in general to GST-Mnk, when not distinguishing between the two isoforms. Expression of GST-Mnk was in E. coli BL21 (Merck Biosciences, Germany, cat. no. 69449). Cells were grown in LB-Bouillon (Merck, Germany, cat. no. 1.10285) supplemented with 100 μg/ml ampicillin (Sigma, Germany, cat. no. A9518) at 37° C. When the culture had reached a density corresponding to an A600 of 0.8, an equal volume of ice cold LB/ampicillin was added, the culture transferred to 25° C. and induced for 4 h with 1 mM isopropyl thiogalactoside (IPTG, Roth, Germany, cat. no. 2316.4). Cells harvested by centrifugation were resuspended in 10 ml lysis buffer (50 mM tris(hydroxymethyl)aminomethane hydrochloride (Tris/HCl, Sigma, Germany, cat. no. T5941) pH 7.5, 300 mM sodium chloride (NaCl, Sigma, Germany, cat. no. S7653), 5% (w/v) glycerol (Sigma, Germany, cat. no. G5516), 3 mM DTT dithiotreitol (DTT, Sigma, Germany, cat. no. D9779)) per gram wet weight cell pellet. Lysates were prepared by disruption of cells with a sonifier and subsequent clearing by centrifugation at 38000 g for 45 min at 4° C.
The lysate was applied to a GSTPrep FF 16/10 column (Amersham, Sweden, cat. no. 17-5234-01) equilibrated with lysis buffer. Removal of unbound material was with 3 column volumes (CV) lysis buffer. Elution was with 2 CV of elution buffer (50 mM Tris/HCl pH 7.5, 300 mM NaCl, 5% (w/v) glycerol, 20 mM glutathione (Sigma, Germany, cat. no. G4251)). Peak fractions were pooled and the protein transferred into storage buffer (50 mM Tris/HCl pH 7.5, 200 mM NaCl, 0.1 mM ethylene glycol-bis(2-aminoethylether)-N,N,N′,N′-tetraacetic acid (EGTA, Aldrich, Germany, cat. no. 23, 453-2), 1 mM DTT, 10% (w/v) glycerol, 0.5 M sucrose (Sigma, Germany, cat. no. SO389) by gel filtration on a PD10 desalting column (Amersham, Sweden, cat. no. 17-0851-01). Aliquots were shock frozen in liquid nitrogen and stored at −80° C.
Activation of Mnk1 and Mnk2a was at a concentration of 2.5 μM of either purified GST-Mnk1 or GST-Mnk2a by incubation with 150 nM pre-activated NHis-ERK2 (see ERK2 assay for preparation) and 50 μM adenosine triphosphate (ATP, Sigma, cat. no. A2699) in a buffer comprising 20 mM N-(2-hydroxyethyl)piperazine-N′-(2-ethanesulfonic acid) (HEPES, Fluka, Germany, cat. no 54459)/potassium hydroxide (KOH, Roth, Germany, cat. no 6751.1) pH 7.4, 10 mM magnesium chloride (MgCl2, Sigma, Germany, cat. no. M2670), 0.25 mM DTT, 0.05% (w/v) polyoxyethylene 20 stearylether (Brij 78, Sigma, Germany, cat. no. P4019) (HMDB buffer) for 45 min at 30° C. […]
In general terms: In fluorescence polarisation assays a small probe gives low polarisation when free and higher when bound to something large.

The record followed here is patent US8648068B2, “Heterocycloalkyl-containing thienopyrimidines for pharmaceutical compositions” (Boehringer Ingelheim International GmbH, priority 2010, dated 2014).

T1 sequence (Q9HBH9 whole entry): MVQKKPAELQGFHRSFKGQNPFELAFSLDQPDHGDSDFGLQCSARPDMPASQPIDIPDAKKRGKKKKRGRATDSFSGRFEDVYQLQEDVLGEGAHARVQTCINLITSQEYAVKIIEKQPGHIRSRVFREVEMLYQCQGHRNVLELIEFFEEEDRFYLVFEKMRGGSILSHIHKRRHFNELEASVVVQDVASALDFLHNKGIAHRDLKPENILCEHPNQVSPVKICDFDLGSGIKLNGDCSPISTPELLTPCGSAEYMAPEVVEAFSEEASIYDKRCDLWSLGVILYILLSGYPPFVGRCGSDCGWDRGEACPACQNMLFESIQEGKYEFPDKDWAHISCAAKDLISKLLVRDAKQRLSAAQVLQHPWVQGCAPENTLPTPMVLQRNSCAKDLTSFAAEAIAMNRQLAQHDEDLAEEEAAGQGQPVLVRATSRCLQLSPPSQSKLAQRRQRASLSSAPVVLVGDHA

`Cc1c(C(=O)N[C@H]2CCN(C(=O)OC(C)(C)C)C[C@@H]2O)sc2ncnc(Nc3ccc(F)cc3OC3CCOCC3)c12` [Example 241]: the IC50 came out at 36 nM.

Regarding `Cc1c(C(=O)NCCN2CCCC2)sc2ncnc(Nc3ccc(F)cc3OC3CCOCC3)c12` [Example 209], the IC50 was 69 nM.

On to `Cc1c(C(=O)NCCc2cccs2)sc2ncnc(Nc3ccc(F)cc3OC3CCCNC3)c12` (stereo not drawn) [Example 37], for which the IC50 came out at 68 nM. With `Cc1c(C(=O)NCC2CCC(=O)N2)sc2ncnc(Nc3ccc(F)cc3OC3CCOCC3)c12` (stereo not drawn) [Example 150], the IC50 is 70 nM. Consider `Cc1c(C(=O)NCC2(O)CC2)sc2ncnc(Nc3ccc(F)cc3OC3CCOCC3)c12` [Example 178], for which the IC50 was found to be 47 nM. Turning to `Cc1c(C(=O)NCCCN2CCCC2)sc2ncnc(Nc3ccc(F)cc3O[C@@H]3CCCOC3)c12` [Example 258, 4-{4-Fluoro-2-[(R)-(tetrahydro-pyran-3-yl)oxy]-phenylamino}-5-methyl-thieno[2,3-d]pyrimidine-6-carboxylic acid (3-pyrrolidin-1-yl-propyl)-amide], the IC50 came to 20 nM. For the molecule `Cc1c(C(N)=O)sc2ncnc(Nc3ccc(F)cc3O[C@@H]3CCN(S(C)(=O)=O)C3)c12` [Example 99, 4-[4-Fluoro-2-((R)-1-methanesulfonyl-pyrrolidin-3-yloxy)-phenylamino]-5-methyl-thieno[2,3-d]pyrimidine-6-carboxylic acid amide], the IC50 came out at 6 nM. Under `Cc1c(C(=O)Nc2ccn(C)n2)sc2ncnc(Nc3ccc(F)cc3O[C@H]3CCCNC3)c12` [Example 64, 4-[4-Fluoro-2-((S)-piperidin-3-yloxy)-phenylamino]-5-methyl-thieno[2,3-d]pyrimidine-6-carboxylic acid (1-methyl-1H-pyrazol-3-yl)-amide] stands 21 nM; under `Cc1c(C(N)=O)sc2ncnc(Nc3ccc(F)cc3O[C@@H]3CCCN(S(C)(=O)=O)C3)c12` [Example 84, 4-[4-Fluoro-2-((R)-1-methanesulfonyl-piperidin-3-yloxy)-phenylamino]-5-methyl-thieno[2,3-d]pyrimidine-6-carboxylic acid amide], 2 nM.

In the case of `Cc1c(C(N)=O)sc2ncnc(Nc3ccc(Cl)cc3O[C@H]3CCCNC3)c12` [Example 66, 4-[4-Chloro-2-((S)-piperidin-3-yloxy)-phenylamino]-5-methyl-thieno[2,3-d]pyrimidine-6-carboxylic acid amide], the IC50 came to 10 nM. As for `Cc1c(C(=O)NCCCS(C)(=O)=O)sc2ncnc(Nc3ccc(F)cc3OC3CCOCC3)c12` [Example 193], the IC50 was 33 nM. `Cc1c(C(=O)N[C@H]2CCNC[C@@H]2O)sc2ncnc(Nc3ccc(F)cc3OC3CCOCC3)c12` [Example 246]: the IC50 came out at 18 nM.

With `Cc1c(C(=O)NCCCN2CCCC2)sc2ncnc(Nc3ccc(F)cc3O[C@H]3CCOC3)c12` [Example 111], the IC50 was 22 nM.

With `CNC(=O)CCNC(=O)c1sc2ncnc(Nc3ccc(F)cc3OC3CCOCC3)c2c1C` [Example 166], the IC50 came out at 37 nM. On to `Cc1c(C(=O)NCC2CCCO2)sc2ncnc(Nc3ccc(F)cc3OC3CCCNC3)c12` (stereo not drawn) [Example 25], for which the IC50 was 81 nM. To `Cc1c(C(=O)NCC2CN(C)CCO2)sc2ncnc(Nc3ccc(F)cc3OC3CCOCC3)c12` (stereo not drawn) [Example 117] belongs 22 nM; to `CNC(=O)c1sc2ncnc(Nc3ccc(F)cc3OC3CCN(S(C)(=O)=O)C3)c2c1C` (stereo not drawn) [Example 90], 14 nM; to `Cc1c(C(=O)NCC(C)(C)C)sc2ncnc(Nc3ccc(F)cc3OC3CCCNC3)c12` (stereo not drawn) [Example 21], 76 nM. On to `Cc1c(C(=O)NC2(CO)CC2)sc2ncnc(Nc3ccc(F)cc3OC3CCOCC3)c12` [Example 194], for which the IC50 was determined as 63 nM. To `Cc1c(C(=O)NCC(=O)O)sc2ncnc(Nc3ccc(F)cc3OC3CCOCC3)c12` [Example 149] belongs 37 nM; to `Cc1c(C(=O)N[C@H]2C[C@H]2N)sc2ncnc(Nc3ccc(F)cc3OC3CCOCC3)c12` [Example 136], 71 nM.

By IC50 is commonly meant the concentration that inhibits the measured activity by half.
